# Measured values: patent US20130324428A1, “SPECIFIC BIOMARKER FOR IDENTIFICATION OF EXPOSURE TO LOWER ALIPHATIC SATURATED ALDEHYDES AND THE METHOD OF IDENTIFICATION USING THE SAME” (KOREA INSTITUTE OF SCIENCE AND TECHNOLOGY, priority 2012, published 2013)
# Columns and labels:
# Format in all cases: cell-based, human
# [1] = tested on: EMR2 (NM_013447) expression in A549 cells; assay: Oligo microarray gene expression, EMR2; details: A549 cells treated 48 hours at the IC20 concentration; Cy5/Cy3 ratio vs untreated control
# Description: (§1) A549 cells were distributed in 6-well plate at the density of 25×10^4 cells/ml, to which lower aliphatic saturated aldehydes were treated for 48 hours at the concentrations determined in Example <1-2>. Total RNA was extracted from the cells by using trizol reagent according to the manufacturer's protocol (Invitrogen life technologies, USA), followed by purification by using RNease mini kit (Qiagen, USA). Genomic DNA was eliminated by using RNase-free DNase set (Qiagen, USA) during the RNA purification. The amount of total RNA was measured with spectrophotometer, and the concentration was confirmed by ND-1000 Spectrophotometer (Thermo Fisher Scientific Inc., USA) and Agilent 2100 Bioanalyzer (Agilent).
# (§2) For oligomicroarray analysis, cDNA was synthesized by using the total RNA obtained from the experimental group treated with lower aliphatic saturated aldehydes prepared in Example <2-1>. 30 μg of the obtained total RNA and 2 μg of oilgo (dT) primer (1 μg/μl) were mixed together, followed by reaction at 65° C. for 10 minutes, which was transferred into ice for annealing. Upon completion of annealing, reagents were added thereto as shown in Table 1 to induce reverse transcription of the annealed RNA. The total RNA extracted from the control group A549 cells was labeled with Cy3-dUTP (green). The total RNA extracted from the experimental group A549 cells treated with lower aliphatic saturated aldehydes was labeled with Cy5-dUTP (red). At that time, the two samples were mixed and purified by using Microcon YM-30 column (Millipore, USA).
# (§3) Hybridization and washing processes were performed according to the protocol provided by Ebiogen Inc.
# (§4) Labeled cRNA was purified. 600 ng of the purified cRNA was reacted at 60° C. for 30 minutes for fragmentation. The prepared cRNA was mixed with 2×GEx Hybridization Buffer HI-RPM. After well mixing, the mixture was loaded on chip, followed by hybridization in the oven at 65° C. for 17 hours. 17 hours later, the chip was washed with GE Wash Buffer […] and with GE Wash Buffer 2 for 1 minute. Centrifugation was performed with the chip at 800 rpm for 3 minutes, followed by drying thereof.
# (§5) Hybridization images on the slide were scanned with Agilent C scanner (Agilent technologies, CA, USA). At that time, the green fluorescent image indicated the activity of gene expressed specifically in the control group, while the red fluorescent image indicated the activity of gene expressed specifically in the experimental group. […] To obtain gene expression rate, the scanned images were analyzed by using Agilent Feature Extraction 10.7.3.1 (Agilent technologies, CA, USA). The extracted data proceeded to normalization by using Agilent GeneSpring GX 11.5.1 (Agilent technologies, CA, USA) to analyze gene expression pattern of each gene. The marker gene for lower aliphatic saturated aldehydes was selected from the obtained data.
# [2] = tested on: KIF1A (NM_004321) expression in A549 cells; assay: Oligo microarray gene expression, KIF1A; details: A549 cells treated 48 hours at the IC20 concentration; Cy5/Cy3 ratio vs untreated control
# Description: as §1, §2, §3, §4, §5
# A549 cells = assay: in vitro
# Description: (§6) A549 cells (Korean Cell Line Bank), the human lung cancer tissue derived cell line, were cultured in 100 mm dish containing RPMI (Gibro-BRL, USA) supplemented with 10% FBS until the confluency reached 80%. […] The concentration of vehicle was up to 0.1% in every experiment.
# (§7) MTT assay was performed with A549 cell line according to the method of Mossman, et al (J. Immunol. Methods, 65, 55-63, 1983).
# (§8) Particularly, the cells were distributed in 24-well plate (3.5×10^4 cells/well) containing RPMI (Gibro-BRL, USA) and then treated with lower aliphatic saturated aldehydes dissolved in DMSO. 48 hours later, 5 mg/ml of MTT (3-4,5-dimethylthiazol-2,5-diphenyltetra zolium bromide) was added thereto, followed by culture at 37° C. for 3 hours. Then, the medium was discarded and the formed formazan crystal was dissolved in 500 μl of DMSO, which was aliquoted in 96-well plate. OD540 was measured.
# [3] = tested on: DHRS9 (NM_005771) expression in A549 cells; assay: Oligo microarray gene expression, DHRS9; details: A549 cells treated 48 hours at the IC20 concentration; Cy5/Cy3 ratio vs untreated control
# Description: as §1, §2, §3, §4, §5
# [4] = tested on: B3GALT4 (NM_003782) expression in A549 cells; assay: Oligo microarray gene expression, B3GALT4; details: A549 cells treated 48 hours at the IC20 concentration; Cy5/Cy3 ratio vs untreated control
# Description: as §1, §2, §3, §4, §5
# [5] = tested on: KIAA1199 (NM_018689) expression in A549 cells; assay: Oligo microarray gene expression, KIAA1199; details: A549 cells treated 48 hours at the IC20 concentration; Cy5/Cy3 ratio vs untreated control
# Description: as §1, §2, §3, §4, §5
# in vitro = details: human
# Description: as §6, §7, §8
IC20 (A549 cells) [µM],IC20 at 48 h (in vitro) [µM],SMILES,"Median ratio of microarray, EMR2 [1]","Median ratio of microarray, KIF1A [2]","Median ratio of microarray, DHRS9 [3]","Median ratio of microarray, B3GALT4 [4]","Median ratio of microarray, KIAA1199 [5]"
4600,–,CCCC=O [butylaldehyde],8.094,14.175,2.353,0.498,1.733
–,2500,CCC=O [propionaldehyde],6.906,3.814,2.988,0.483,4.454
–,580,CCCCCCCC=O [octanal],1.785,2.262,3.057,0.564,2.294
–,800,CCCCCC=O [hexanal],1.89,1.682,1.654,0.574,1.736
–,600,CCCCCCC=O [heptanal],2.25,1.955,2.157,0.634,2.815
–,1700,CCCCC=O [valeraldehyde],6.242,7.871,2.088,0.53,3.122
